Ends that are not written are not given here.
Tested on: humans
Assay: Safety, Tolerability and Pharmacokinetic Study in humans: blood histamine
Type: in vivo, human
Description: We carried out a Safety, Tolerability and Pharmacokinetic Study of Tat-NR2B9c in humans. Subjects were either normal, healthy, non-smoking males or post-menopausal or surgically sterile female subjects with a minimum age of 18 years. The subjects were either administered Tat-NR2B9c, Lot #: 124-134-001B, or were given placebo (Phosphate Buffered Saline), Lot #: 124-134-001A, administered as an intravenous infusion (10±1 minutes). Four subjects were dosed in each of Cohorts 1 to 3, and 10 subjects were dosed in each of Cohorts 4 to 8. All 62 subjects completed the study. Treatment periods for each cohort were as follows: Cohort 1: Sep. 14, 2006; Cohort 2: Sep. 26, 2006; Cohort 3: Oct. 6, 2006; Cohort 4: Oct. 20, 2006; Cohort 5: Nov. 6, 2006; Cohort 6: Dec. 4, 2006; Cohort 7: Dec. 17, 2006; Cohort 8: Feb. 25, 2007.
During the study period, 11 blood samples were collected for pharmacokinetic analysis from each subject at the following timepoints: 0.00 (pre-dose), 0.08 (5 minutes), 0.17 to 0.25 (10 to 15 minutes, precisely at the end of each individual drug infusion), 0.33 (20 minutes), 0.50, 0.75, 1.00, 2.00, 6.00, 12.00, and 24.00 hours post-dose. In addition, 8 blood samples were collected for histamine analysis from each subject at the following timepoints: 0.00 (pre-dose), and at 0.08 (5 minutes), 0.17 (10 minutes), 0.25, 0.50, 1.00, 2.00, and 24.00 hours post-dose.

## YGRKKRRQRRRKLSSIESDV [Tat-NR2B9c]
NA-1 0.75 mg/kg (n = 8), Day 1, 0.00 hr
  Number of Subjects with Histamine levels >10 nmol/L: 0
NA-1 0.75 mg/kg (n = 8), Day 1, 0.08 hr
  Number of Subjects with Histamine levels >10 nmol/L: 0
NA-1 0.75 mg/kg (n = 8), Day 1, 0.17 hr
  Number of Subjects with Histamine levels >10 nmol/L: 0
NA-1 0.75 mg/kg (n = 8), Day 1, 0.25 hr
  Number of Subjects with Histamine levels >10 nmol/L: 0
NA-1 0.75 mg/kg (n = 8), Day 1, 0.50 hr
  Number of Subjects with Histamine levels >10 nmol/L: 0
NA-1 0.75 mg/kg (n = 8), Day 1, 1.00 hr
  Number of Subjects with Histamine levels >10 nmol/L: 0
NA-1 0.75 mg/kg (n = 8), Day 1, 2.00 hr
  Number of Subjects with Histamine levels >10 nmol/L: 0
NA-1 0.75 mg/kg (n = 8), Day 1, 24.00 hr
  Number of Subjects with Histamine levels >10 nmol/L: 0
NA-1 0.75 mg/kg (n = 8), Day 7
  Number of Subjects with Histamine levels >10 nmol/L: 0
NA-1 0.75 mg/kg (n = 8), Day 14
  Number of Subjects with Histamine levels >10 nmol/L: 0
NA-1 0.75 mg/kg (n = 8), Day 28 End-of-study
  Number of Subjects with Histamine levels >10 nmol/L: 0
NA-1 0.75 mg/kg (n = 8), Screening
  Number of Subjects with Histamine levels >10 nmol/L: 0
NA-1 1.50 mg/kg (n = 8), Day 1, 0.00 hr
  Number of Subjects with Histamine levels >10 nmol/L: 0
NA-1 1.50 mg/kg (n = 8), Day 1, 0.08 hr
  Number of Subjects with Histamine levels >10 nmol/L: 0
NA-1 1.50 mg/kg (n = 8), Day 1, 0.17 hr
  Number of Subjects with Histamine levels >10 nmol/L: 0
NA-1 1.50 mg/kg (n = 8), Day 1, 0.25 hr
  Number of Subjects with Histamine levels >10 nmol/L: 0
NA-1 1.50 mg/kg (n = 8), Day 1, 0.50 hr
  Number of Subjects with Histamine levels >10 nmol/L: 0
NA-1 1.50 mg/kg (n = 8), Day 1, 1.00 hr
  Number of Subjects with Histamine levels >10 nmol/L: 0
NA-1 1.50 mg/kg (n = 8), Day 1, 2.00 hr
  Number of Subjects with Histamine levels >10 nmol/L: 0
NA-1 1.50 mg/kg (n = 8), Day 1, 24.00 hr
  Number of Subjects with Histamine levels >10 nmol/L: 0
NA-1 1.50 mg/kg (n = 8), Day 7
  Number of Subjects with Histamine levels >10 nmol/L: 0
NA-1 1.50 mg/kg (n = 8), Day 14
  Number of Subjects with Histamine levels >10 nmol/L: 0
NA-1 1.50 mg/kg (n = 8), Day 28 End-of-study
  Number of Subjects with Histamine levels >10 nmol/L: 0
NA-1 1.50 mg/kg (n = 8), Screening
  Number of Subjects with Histamine levels >10 nmol/L: 0
NA-1 2.60 mg/kg (n = 8), Day 1, 0.00 hr
  Number of Subjects with Histamine levels >10 nmol/L: 0
NA-1 2.60 mg/kg (n = 8), Day 1, 0.08 hr
  Number of Subjects with Histamine levels >10 nmol/L: 0
NA-1 2.60 mg/kg (n = 8), Day 1, 0.17 hr
  Number of Subjects with Histamine levels >10 nmol/L: 0
NA-1 2.60 mg/kg (n = 8), Day 1, 0.25 hr
  Number of Subjects with Histamine levels >10 nmol/L: 0
NA-1 2.60 mg/kg (n = 8), Day 1, 0.50 hr
  Number of Subjects with Histamine levels >10 nmol/L: 0
NA-1 2.60 mg/kg (n = 8), Day 1, 1.00 hr
  Number of Subjects with Histamine levels >10 nmol/L: 0
NA-1 2.60 mg/kg (n = 8), Day 1, 2.00 hr
  Number of Subjects with Histamine levels >10 nmol/L: 0
NA-1 2.60 mg/kg (n = 8), Day 1, 24.00 hr
  Number of Subjects with Histamine levels >10 nmol/L: 0
NA-1 2.60 mg/kg (n = 8), Day 7
  Number of Subjects with Histamine levels >10 nmol/L: 0
NA-1 2.60 mg/kg (n = 8), Day 14
  Number of Subjects with Histamine levels >10 nmol/L: 0
NA-1 2.60 mg/kg (n = 8), Day 28 End-of-study
  Number of Subjects with Histamine levels >10 nmol/L: 0
NA-1 2.60 mg/kg (n = 8), Screening
  Number of Subjects with Histamine levels >10 nmol/L: 0
NA-1 3.75 mg/kg (n = 8), Day 1, 0.00 hr
  Number of Subjects with Histamine levels >10 nmol/L: 0
NA-1 3.75 mg/kg (n = 8), Day 1, 0.08 hr
  Number of Subjects with Histamine levels >10 nmol/L: 0
NA-1 3.75 mg/kg (n = 8), Day 1, 0.17 hr (10 minutes)
  Number of Subjects with Histamine levels >10 nmol/L: 7 of the 8
NA-1 3.75 mg/kg (n = 8), Day 1, 0.17 hr (10 minutes), listed as NA 1, 3.75 mg/kg
  Number of Subjects with Histamine levels >10 nmol/L: Seven of 8
NA-1 3.75 mg/kg (n = 8), Day 1, 0.17 hr (10 minutes), listed as NA-1, 3.75 mg/kg
  Number of Subjects with Histamine levels >10 nmol/L: 7
NA-1 3.75 mg/kg (n = 8), Day 1, 0.25 hr (15 minutes)
  Number of Subjects with Histamine levels >10 nmol/L: 3
NA-1 3.75 mg/kg (n = 8), Day 1, 0.50 hr
  Number of Subjects with Histamine levels >10 nmol/L: 0
NA-1 3.75 mg/kg (n = 8), Day 1, 1.00 hr
  Number of Subjects with Histamine levels >10 nmol/L: 0
NA-1 3.75 mg/kg (n = 8), Day 1, 2.00 hr
  Number of Subjects with Histamine levels >10 nmol/L: 0
NA-1 3.75 mg/kg (n = 8), Day 1, 24.00 hr
  Number of Subjects with Histamine levels >10 nmol/L: 0
NA-1 3.75 mg/kg (n = 8), Day 7
  Number of Subjects with Histamine levels >10 nmol/L: 0
NA-1 3.75 mg/kg (n = 8), Day 14
  Number of Subjects with Histamine levels >10 nmol/L: 0
NA-1 3.75 mg/kg (n = 8), Day 28 End-of-study
  Number of Subjects with Histamine levels >10 nmol/L: 0
NA-1 3.75 mg/kg (n = 8), Screening
  Number of Subjects with Histamine levels >10 nmol/L: 0
After drug administration
  Time for abnormal histamine results to return to the normal range: ≤ 24.00 h
Dose groups other than 3.75 mg/kg
  Abnormal histamine levels in other dose groups: no treatment group had significant abnormal levels of histamine

Reference: patent publication US10046060B2, “Co-administration of an agent linked to an internalization peptide with an anti-inflammatory” (NoNO Inc., priority 2007, dated 2018)
